PubChem BioAssay AID743168 (Sanford-Burnham Center for Chemical Genomics, 2013)
Active and inactive are the calls of the source.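 How the source made its calls: active means compounds whose IC50 here is at most triple their IC50 in the earlier fluorescent lipid screen; inactive means the rest.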

biological target: Diacylglycerol O-acyltransferase 1 (Homo sapiens) (UniProt O75907); assay: human DGAT-1 enzyme inhibitors, dose response, counter-screen for TAG accumulation inhibitor project, biochemical, recombinant hDGAT-1, [14C]-TAG formation, radiolabel (AID 743168); settings: scintillation
Sequence (O75907 whole entry, looked up): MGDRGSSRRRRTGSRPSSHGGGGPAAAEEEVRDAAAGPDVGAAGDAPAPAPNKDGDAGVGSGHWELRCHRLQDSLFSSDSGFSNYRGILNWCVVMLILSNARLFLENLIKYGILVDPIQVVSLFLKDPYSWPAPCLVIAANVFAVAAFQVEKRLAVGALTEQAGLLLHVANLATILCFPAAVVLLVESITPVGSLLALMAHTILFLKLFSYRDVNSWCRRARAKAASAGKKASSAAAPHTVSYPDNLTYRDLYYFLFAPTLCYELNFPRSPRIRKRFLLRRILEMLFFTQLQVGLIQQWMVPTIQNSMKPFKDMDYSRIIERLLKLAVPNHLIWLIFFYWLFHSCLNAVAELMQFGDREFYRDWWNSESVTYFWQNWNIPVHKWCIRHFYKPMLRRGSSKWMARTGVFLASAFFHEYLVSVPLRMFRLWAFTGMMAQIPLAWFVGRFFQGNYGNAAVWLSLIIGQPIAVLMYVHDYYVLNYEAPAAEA

| IC50 | SMILES |
| --- | --- |
| > 50 µM (inactive) | O=C(Nc1cccc(-c2nc3ccccc3[nH]2)c1)c1cccc2c1C(=O)N(CC1CC1)C2 |
| > 50 µM (inactive) | CCCCN1Cc2cccc(C(=O)Nc3cccc(-c4nc5ccccc5[nH]4)c3)c2C1=O |

The next lines start with the compound.

| SMILES | IC50 |
| --- | --- |
| O=C(Nc1cccc(-c2nc3ccccc3[nH]2)c1)c1cccc2c1C(=O)N(CCOc1ccccc1)C2 | > 50 µM (inactive) |
| COCCN1Cc2cccc(C(=O)Nc3cccc(-c4nc5ccccc5[nH]4)c3)c2C1=O | > 50 µM (inactive) |
| CCOCCN1Cc2cccc(C(=O)Nc3cccc(-c4nc5ccccc5[nH]4)c3)c2C1=O | > 50 µM (inactive) |
